Tests used:
Assay in all cases: NCI-60 one-dose SRB screening
Type in all cases: cell-based
HOP-92 = details: Homo sapiens, HOP-92, Non-Small Cell Lung Cancer, 10 µM one dose, 48 h, read-out: growth percentage
HL-60(TB) = details: Homo sapiens, Leukemia, 10 µM one dose, 48 h, read-out: growth percentage
OVCAR-5 = details: Homo sapiens, OVCAR-5, Ovarian Cancer, 10 µM one dose, 48 h, read-out: growth percentage
HCT-116 = details: Homo sapiens, HCT-116, Colon Cancer, 10 µM one dose, 48 h, read-out: growth percentage
SK-MEL-28 = details: Homo sapiens, SK-MEL-28, Melanoma, 10 µM one dose, 48 h, read-out: growth percentage
TK-10 = details: Homo sapiens, TK-10, Renal Cancer, 10 µM one dose, 48 h, read-out: growth percentage
UACC-257 = details: Homo sapiens, UACC-257, Melanoma, 10 µM one dose, 48 h, read-out: growth percentage
SF-295 = details: Homo sapiens, SF-295, CNS Cancer, 10 µM one dose, 48 h, read-out: growth percentage
SK-MEL-5 = details: Homo sapiens, SK-MEL-5, Melanoma, 10 µM one dose, 48 h, read-out: growth percentage
MDA-MB-435 = details: Homo sapiens, MDA-MB-435, Melanoma, 10 µM one dose, 48 h, read-out: growth percentage
HCT-15 = details: Homo sapiens, HCT-15, Colon Cancer, 10 µM one dose, 48 h, read-out: growth percentage
A549/ATCC = details: Homo sapiens, Non-Small Cell Lung Cancer, 10 µM one dose, 48 h, read-out: growth percentage
PC-3 = details: Homo sapiens, PC-3, Prostate Cancer, 10 µM one dose, 48 h, read-out: growth percentage
MALME-3M = details: Homo sapiens, Melanoma, 10 µM one dose, 48 h, read-out: growth percentage
OVCAR-4 = details: Homo sapiens, OVCAR-4, Ovarian Cancer, 10 µM one dose, 48 h, read-out: growth percentage
786-0 = details: Homo sapiens, 786-0, Renal Cancer, 10 µM one dose, 48 h, read-out: growth percentage

SMILES | activity at 10 µM (HOP-92) [%] | activity at 10 µM (HL-60(TB)) [%] | activity at 10 µM (OVCAR-5) [%] | activity at 10 µM (HCT-116) [%] | activity at 10 µM (SK-MEL-28) [%] | activity at 10 µM (TK-10) [%] | activity at 10 µM (UACC-257) [%] | activity at 10 µM (SF-295) [%] | activity at 10 µM (SK-MEL-5) [%] | activity at 10 µM (MDA-MB-435) [%] | activity at 10 µM (HCT-15) [%] | activity at 10 µM (A549/ATCC) [%] | activity at 10 µM (PC-3) [%] | activity at 10 µM (MALME-3M) [%] | activity at 10 µM (OVCAR-4) [%] | activity at 10 µM (786-0) [%]
[O-][n+]1onc(-c2ccccc2)c1COc1ccc(Nc2ncnc3c2cnn3-c2ccccc2)cc1 [6a, 4-phenyl-3-((4-((1-phenyl-1H-pyrazolo[3,4-d]pyrimidin-4-yl)amino)phenoxy)methyl)-1,2,5-oxadiazole 2-oxide] | 115 | 94.7 | 110 | 93 | 104 | 103 | 98.9 | 98.4 | 102 | 114 | 54.2 | 96 | 98.1 | 90 | 130 | 115
Cc1nc(Nc2ccc(OCc3c(-c4ccccc4)no[n+]3[O-])cc2)c2cnn(-c3ccccc3)c2n1 [6b, 3-((4-((6-methyl-1-phenyl-1H-pyrazolo[3,4-d]pyrimidin-4-yl)amino)phenoxy)methyl)-4-phenyl-1,2,5-oxadiazole 2-oxide] | 91.4 | 122 | 106 | 99.2 | 101 | 94.8 | 101 | 97.1 | 103 | 99.7 | 96.4 | 101 | 103 | 99.3 | 102 | 95.8
Cc1nn(-c2ccccc2)c2ncnc(Nc3ccc(OCc4c(-c5ccccc5)no[n+]4[O-])cc3)c12 [6c, 3-((4-((3-methyl-1-phenyl-1H-pyrazolo[3,4-d]pyrimidin-4-yl)amino)phenoxy)methyl)-4-phenyl-1,2,5-oxadiazole 2-oxide] | 91.2 | 119 | 104 | 81.8 | 102 | 110 | 105 | 99 | 90.4 | 93.4 | 91.5 | 99.3 | 83.5 | 98.2 | 90.6 | 107
Cc1nc(Nc2ccc(OCc3c(-c4ccccc4)no[n+]3[O-])cc2)c2c(C)nn(-c3ccccc3)c2n1 [6d, 3-((4-((3,6-dimethyl-1-phenyl-1H-pyrazolo[3,4-d]pyrimidin-4-yl)amino)phenoxy)methyl)-4-phenyl-1,2,5-oxadiazole 2-oxide] | 104 | 111 | 101 | 104 | 102 | 126 | 109 | 108 | 98 | 105 | 104 | 103 | 99 | 101 | 103 | 107
[O-][n+]1onc(-c2ccccc2)c1COc1ccc(Nc2ncnc3c2cnn3-c2ccc(Br)cc2)cc1 [6e, 3-((4-((1-(4-bromophenyl)-1H-pyrazolo[3,4-d]pyrimidin-4-yl)amino)phenoxy)methyl)-4-phenyl-1,2,5-oxadiazole 2-oxide] | 109 | 96.1 | 98.8 | 92.7 | 99.3 | 107 | 104 | 101 | 95.9 | 94.5 | 94.9 | 93.5 | 97 | 95.3 | 100 | 96.1
Cc1nc(Nc2ccc(OCc3c(-c4ccccc4)no[n+]3[O-])cc2)c2cnn(-c3ccc(Br)cc3)c2n1 [6f, 3-((4-((1-(4-bromophenyl)-6-methyl-1H-pyrazolo[3,4-d]pyrimidin-4-yl)amino)phenoxy)methyl)-4-phenyl-1,2,5-oxadiazole 2-oxide] | 111 | 100 | 99.3 | 97.5 | 103 | 97.7 | 101 | 102 | 99.7 | 94.5 | 98.1 | 94.9 | 103 | 106 | 99.5 | 82.2
Cc1nn(-c2ccc(Br)cc2)c2ncnc(Nc3ccc(OCc4c(-c5ccccc5)no[n+]4[O-])cc3)c12 [6g, 3-((4-((1-(4-bromophenyl)-3-methyl-1H-pyrazolo[3,4-d]pyrimidin-4-yl)amino)phenoxy)methyl)-4-phenyl-1,2,5-oxadiazole 2-oxide] | 86.5 | 115 | 99.3 | 90.7 | 99.5 | 123 | 97.1 | 87.6 | 96.5 | 101 | 97.2 | 97.3 | 90.9 | 91.6 | 95.7 | 122
Cc1nc(Nc2ccc(OCc3c(-c4ccccc4)no[n+]3[O-])cc2)c2c(C)nn(-c3ccc(Br)cc3)c2n1 [6h, 3-((4-((1-(4-bromophenyl)-3,6-dimethyl-1H-pyrazolo[3,4-d]pyrimidin-4-yl)amino)phenoxy)methyl)-4-phenyl-1,2,5-oxadiazole 2-oxide] | 94.6 | 70.8 | 102 | 71.5 | 101 | 114 | 99.8 | 105 | 91.5 | 96.7 | 79 | 96.4 | 67.4 | 96 | 97 | 107
Cc1nn(-c2ccccc2)c2nc(C(F)(F)F)nc(Nc3ccc(NCc4c(-c5ccccc5)no[n+]4[O-])cc3)c12 [12a, 3-(((4-((3-methyl-1-phenyl-6-(trifluoromethyl)-1H-pyrazolo[3,4-d]pyrimidin-4-yl)amino)phenyl)amino)methyl)-4-phenyl-1,2,5-oxadiazole 2-oxide] | 90.1 | 77.2 | 93.7 | 41.1 | 92.4 | 94.4 | 103 | 76.6 | 70.3 | 78.7 | 42 | 76.6 | 45.6 | 91 | 70.8 | 92.4
Cc1nn(-c2ccc(Br)cc2)c2nc(C(F)(F)F)nc(Nc3ccc(NCc4c(-c5ccccc5)no[n+]4[O-])cc3)c12 [12c, 3-(((4-((1-(4-bromophenyl)-3-methyl-6-(trifluoromethyl)-1H-pyrazolo[3,4-d]pyrimidin-4-yl)amino)phenyl)amino)methyl)-4-phenyl-1,2,5-oxadiazole 2-oxide] | 82.3 | 83.2 | 89.5 | 31.9 | 89.5 | 109 | 95.7 | 57.5 | 61.7 | 86.6 | 34.6 | 82.4 | 47 | 77.7 | 81.3 | 88.1
Cc1nn(-c2ccc(Br)cc2)c2nc(CCl)[nH]c(=O)c12 [13c] | 101 |  | 116 | 98.3 | 99.9 | 111 | 102 | 100 | 103 | 101 | 103 | 96.9 | 96.3 | -9.8 | 116 | 106

From PMC8880564, “Design, Synthesis, and Biological Evaluation of a Novel VEGFR-2 Inhibitor Based on a 1,2,5-Oxadiazole-2-Oxide Scaffold with MAPK Signaling Pathway Inhibition” (Pharmaceuticals, 2022)
